Our source for the IC50 values is patent US20100216758A1, “Pyridone Compounds” (priority 2005, published 2010).

The experiment addresses T1, human MCH-1R (Homo sapiens, UniProt Q99705).
T1 construct: expressed in transfected cells; host or cells: CHO-K1 (American Type Culture Collection), vector pEF/myc/cyto (Invitrogen)
Briefly: MCH binding inhibition test. Conditions: membrane samples from MCH-1R expressing CHO-K1 cells, 50 pM [125I]MCH, 25° C., one hour, pH 7.4; read-out: IC50 (50% inhibition concentration of test compound to the specific [125I]MCH binding). As for the experimental part:
A human MCH-1R encoding cDNA sequence [FEBS Letters, Vol. 398, 253 (1996); Biochimica et Biophisica Acta, Vol. 1401, 216 (1998)] was cloned to a plasmid vector pEF/myc/cyto (Invitrogen Corporation). The obtained expression vector was transfected to host cells CHO-K1 (American Type Culture Collection) using Lipofectamine Plus Reagent (Life Technology Inc.) to provide MCH-1R expression cells.
Membrane samples prepared from the MCH-1R expression cells were incubated with each test compound and 50 pM of [^125I]MCH (NEN Co.), in an assay buffer (50 mM Tris buffer comprising 10 mM magnesium chloride, 2 mM ethylenediamine tetraacetate, 0.01% bacitracin and 0.2% bovine serum albumin; pH 7.4) at 25° C. for an hour, followed by filtration through a glass filter GF/C (Wattman Co.). After washing the glass filter with 50 mM Tris buffer (pH 7.4) comprising 10 mM magnesium chloride, 2 mM ethylenediamine tetraacetate and 0.04% Tween-20, the radioactive activity on the glass filter was measured. The non-specific binding was measured in the presence of 1 μM human MCH and 50% inhibition concentration (IC50 value) of each test compound to the specific [^125I]MCH binding was determined.

Each structure is given as a SMILES string.

T1 sequence (Q99705 whole entry): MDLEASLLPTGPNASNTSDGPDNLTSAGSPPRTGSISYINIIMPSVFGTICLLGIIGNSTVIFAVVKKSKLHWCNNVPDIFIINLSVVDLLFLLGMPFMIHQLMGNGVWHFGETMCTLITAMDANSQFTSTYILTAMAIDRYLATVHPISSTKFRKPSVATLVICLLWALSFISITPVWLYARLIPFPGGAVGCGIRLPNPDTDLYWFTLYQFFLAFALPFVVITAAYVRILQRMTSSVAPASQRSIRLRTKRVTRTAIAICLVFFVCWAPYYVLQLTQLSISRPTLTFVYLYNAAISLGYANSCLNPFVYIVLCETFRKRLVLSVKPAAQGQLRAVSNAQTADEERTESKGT

Consider `O=c1cc(OCc2ccc(Cl)cn2)ccn1CCc1ccc(CN2CCCC2)cc1` [Example 26, 4-[(5-Chloropyridin-2-yl)methoxy]-1-(2-[4-(pyrrolidin-1-ylmethyl)phenyl]ethyl}pyridin-2(1H)-one], for which the IC50 was 5.8 nM.
As for `CCN(CC)Cc1ccc(CCn2ccc(OCc3ccc(F)cc3)cc2=O)cc1` [Example 2, 1-(2-{4-[(Diethylamino)methyl]phenyl}ethyl)-4-[(4-fluorobenzyl)oxy]pyridin-2(1H)one], the figure is 5.9 nM; as for `O=c1cc(OCc2ccc(Cl)cc2)ccn1CCc1ccc(CN2C3CCC2CC3)cc1` [Example 41, 1-{2-[4-(7-Azabicyclo[2.2.1]hept-7-ylmethyl)phenyl]ethyl}-4-[(4-chlorobenzyl)oxy]pyridin-2(1H)-one], 3 nM.
The value for `CCCNCc1ccc(CCn2ccc(OCc3ccc(F)cc3)cc2=O)cc1` [Example 72, 4-[(4-Fluorobenzyl)oxy]-1-(2-{4-[(propylamino)methyl]phenyl}ethyl)pyridin-2(1H)-one] was 2.6 nM.
As for `CCN(CC)Cc1ccc(CCn2ccc(OCc3ccc(Cl)cn3)cc2=O)cc1` [Example 14, 4-[(5-Chloropyridin-2-yl)methoxy]-1-(2-{4-[(diethylamino)methyl]phenyl}ethyl)pyridin-2(1H)-one], the figure is 7.3 nM.
